Series [1] concerns Rheb^CA-expressing neurons. The series can be described thus: Cell placement, soma size and dendrite (Sholl) analysis in Rheb^CA mouse model of FCM. The class given is in vivo, CD-1 mice. The method, then:
(§1) All experiments were performed on CD-1 mice (Charles River) of either sex.
(§2) Each DNA plasmid was diluted in sterile PBS (pH 7.4). Timed pregnant mice (embryonic day, E15) were anesthetized with isoflurane. After exposing the uterine horns, ˜1.5 μl of DNA solution, containing 0.1% fast green added as an injection tracer, was injected into the lateral ventricle via a pulled glass capillary. PBS-soaked tweezer-type electrodes (model 520, BTX) were then positioned on the head of the fetuses across the uterine wall and 6 square-pulses at […] and 50 ms duration every 950 ms were applied using a pulse generator (ECM830, BTX). At birth, mice were prescreened for successful electroporation by detecting the expression of fluorescent protein markers on a fluorescence-enabled stereo microscope (SZX16, Olympus). Morphology and seizure data in different conditions (Flna vs Luciferase shRNA or vehicle vs PTI-125 treatment) were compared between littermate mice. For most experiments, mice received unilateral electroporation, except for experiments in FIG. 4F (P8-P65 PTI-125 treatment on seizures) for which mice received bilateral electroporation.
(§3) Mice: Mice were transcardially perfused with PBS followed by 4% paraformaldehyde. Brains were then dissected and post-fixed in 4% paraformaldehyde for 24 hours before being transferred to a solution of 3% agarose solution in PBS. These were then sectioned coronally on a vibratome at a thickness of 50 μm. For immunofluorescence, free-floating sections were incubated for 1 hour in a blocking solution (2% bovine serum albumin and 0.1% Triton-X in PBS) at room temperature and then incubated with primary antibodies (Table 5) overnight at 4° C. Sections were washed with PBS+0.05% Tween 20 and then placed in blocking solution containing secondary antibodies for 1 hour at room temperature. All images were taken using an FV1000 confocal microscope (Olympus).
(§4) Quantification of the number of layer 2/3 neurons in the anterior cingulate cortex, the boundary between layer 2/3 and layer 5 was determined using ER81 staining, which labels layer 5 (FIGS. 14A-14B)Soma size was quantified by outlining the soma of GFP+ cells and measuring the area using ImageJ. Intensity of phospho-S6 and FLNA in sections was quantified by outlining somas of cells and measuring the mean gray value. Then, the values in electroporated cells (in mice) or SMI-311-positive cells (in humans) were normalized to those in non-electroporated cells or unstained cells surrounding electroporated cells to control for variability of staining between sections.
To analyze neuronal morphology and, in particular dendritic trees, only a few neurons per section were labeled using a Cre-based strategy as previously reported. More specifically, an inducible DsRed2 vector (pCAG-LoxP-stop-LoxP-DsRed2, pCALNL-DsRed2) combined with a Cre vector (pCAG-Cre) was used at very low concentration (1 ng/μl). The Cre plasmid led to DsRed expression in only 3-5 neurons per slice allowing to cleanly analyze the dendritic morphology of individual neurons (FIGS. 15A-15C)Images of DsRed-expressing basal dendrites were acquired in coronal sections using a Fluoview 1000 confocal microscope with a 20× objective. Basal dendrites were traced with simple neurite tracer software (FIJI and Neuronstudio). Sholl analyses were carried out using the number of intersections in 10-μm-increment concentric circles as a measure of morphological complexity. Z stacks from three different square fields of view were taken from three different sections. Analysis was performed blindly with more than four animals and more than 20 cells per condition (see Table 3 for actual n number).
(§5) PTI-125 was dissolved in saline at a concentration of 2.4 mg/ml. Mice received two intraperitoneal injections of 6 or 12 mg/kg PTI-125 every day. Saline was used as vehicle treatment.

A short description of series [2]: Body weight during treatment of Rheb^CA mice. The class given is in vivo, CD-1 mice. Conditions: 12 mg/kg i.p. twice daily, P8-P60. The method, then: as §1, §5
In series [3] the target is aberrant FLNA in Alzheimer's disease (Homo sapiens, UniProt P21333). Conditions: reported; cited from earlier work.
In series [4] the test system is Rheb^CA-expressing mice. The series can be described thus: Video-EEG recording of seizures in Rheb^CA-expressing mice. The class given is in vivo, CD-1 mice. The method, then: as §1
as §2, with “Olympus).” for “Olympus). Morphology and seizure data in different conditions (Flna vs Luciferase shRNA or vehicle vs PTI-125 treatment) were compared between littermate mice. For most experiments, mice received unilateral electroporation, except for experiments in FIG. 4F (P8-P65 PTI-125 treatment on seizures) for which mice received bilateral electroporation.”
Mice were anesthetized with isoflurane and positioned on a stereotaxic frame using ear bars. A rostro-caudal midline incision was made in the skin to expose the skull surface. Four pilot holes (two bilateral holes 1 mm anterior to bregma and two bilateral holes 5 mm posterior to bregma, each 1.5 mm lateral to sagittal suture), was tapped through the skull to dura using a microdrill (Roboz Surgical Instrument, #RS6300). […] Silver conductive paint (Electron Microscopy Science) was applied around the screw threads to ensure a solid connection with the headmount. The entire implant was insulated using dental acrylic. Mice were allowed to recover in their home cage for seven days before video-EEG monitoring.
Mice were housed in individual recording chambers in a light-, temperature- and humidity-controlled room during video-EEG monitoring. Mice were freely moving inside the chambers and had ad libitum access to food and water. Synchronous video-EEG recording was acquired using a three-channel EEG tethered system (Pinnacle Technology, cat. no. 8200-K1-iSE3) and Sirenia Acquisition software (Pinnacle Technology). Mice were continuously recorded 24 hours/day for 5-6 consecutive days or 31-45 days.
Seizure frequency and duration were analyzed using Sirenia Seizure Basic software (Pinnacle Technology). All analyses were performed blinded to experimental groups by at least two investigators. The entire EEG traces were manually reviewed for the occurrence of seizures, defined as a sudden onset of high amplitude activity with a characteristic pattern of progressive frequency and amplitude changes over the course of the event lasting≥10 sec. Seizure onset was defined by high amplitude firing>2× baseline and seizure termination was defined by a return to baseline activity. Video data were inspected for behavioral correlates including myoclonic jerks, tonic-clonic activities, convulsions, and loss of postural control (rearing and falling) and were used as secondary verification of seizures. For each individual animal, mean number of seizures per day was obtained by dividing the total number of seizures by the total number of recording hours and multiplied by 24.
Saline was used as vehicle treatment.

Series [5] addresses native FLNA (Homo sapiens, UniProt P21333). The following applies: reported; cited from earlier work.
Series [6] deals with phospho-S6. The series can be described thus: Phospho-S6 (read-out of mTORC1 activity) immunostaining / immunoblot in mouse cortex. Format: in vivo, CD-1 mice. As for the experimental part: as §3, §4
Human and mouse samples were lysed in RIPA buffer (Thermo fisher, #89900) with protease/phosphatase inhibitor cocktail (Cell Signaling Technology, #5872), 5 mM EDTA, and 20 units/ml DNase I (Roche). All lysates were run on Tris-glycine gels (Bio-Rad, #456-1086 for mouse samples and #456-1046 for human samples). Proteins were transferred to PVDF and blocked in 5% milk and incubated with primary antibodies (concentrations of primary antibody are listed in Table 5). HRP-conjugated anti-rabbit or anti-mouse were used as secondary antibodies. Phosphorylated and total proteins were blotted on the same membrane after stripping (Thermo fisher, #21059). […]
Background: In western blotting, separated proteins are transferred to a membrane and probed.

In series [7] the test system is seizures in individuals with TSC or FCDII. Conditions: clinical trial, cited from earlier work.
The subject of series [8] is Neuro2a cells. Kind of series: S6 phosphorylation immunoblot in transfected Neuro2a cells. Format: cell-based. Conditions: in vitro, Neuro2a cells transfected with shRNA. The method, then:
Neuro2a cells were grown at 37° C. with 5% CO2 in a complete media consisting of high glucose DMEM (Gibco, #11965-092), 5% heat-inactivated fetal bovine serum (Gibco, #16140071), and 1% penicillin-streptomycin. Cells were plated in 12 well culture plates (Corning, #0720082) and transfected when they reached ˜70% confluence. Transfection was done using PolyJet transfection reagent (Signagen, SL100688) according to the manufacturer's instructions. Cells were lysed 72 hours after transfection for all experiments.
Human and mouse samples were lysed in RIPA buffer (Thermo fisher, #89900) with protease/phosphatase inhibitor cocktail (Cell Signaling Technology, #5872), 5 mM EDTA, and 20 units/ml DNase I (Roche). All lysates were run on Tris-glycine gels (Bio-Rad, #456-1086 for mouse samples and #456-1046 for human samples). Proteins were transferred to PVDF and blocked in 5% milk and incubated with primary antibodies (concentrations of primary antibody are listed in Table 5). HRP-conjugated anti-rabbit or anti-mouse were used as secondary antibodies. Phosphorylated and total proteins were blotted on the same membrane after stripping (Thermo fisher, #21059). All density measurements were performed using NIH Image J software. In the case where cross-blot normalization was required a reference sample was loaded on each gel to account for inter-gel variability (FIGS. 11A-11B).

The mark [9] stands for this setting: 6 mg/kg i.p. twice daily, P8 to P28.
The mark [10] stands for this setting: 12 mg/kg i.p. twice daily, P8 to P28.
The mark [11] stands for this setting: treatment after seizure onset, P29 to P54.

Where “and” joins values, the source holds several entries; their conditions need not be identical. Equal values may be shown once. Entries after “also recorded” stand apart in the source; their conditions may differ.

native FLNA, sequence (P21333 whole entry, species assumed): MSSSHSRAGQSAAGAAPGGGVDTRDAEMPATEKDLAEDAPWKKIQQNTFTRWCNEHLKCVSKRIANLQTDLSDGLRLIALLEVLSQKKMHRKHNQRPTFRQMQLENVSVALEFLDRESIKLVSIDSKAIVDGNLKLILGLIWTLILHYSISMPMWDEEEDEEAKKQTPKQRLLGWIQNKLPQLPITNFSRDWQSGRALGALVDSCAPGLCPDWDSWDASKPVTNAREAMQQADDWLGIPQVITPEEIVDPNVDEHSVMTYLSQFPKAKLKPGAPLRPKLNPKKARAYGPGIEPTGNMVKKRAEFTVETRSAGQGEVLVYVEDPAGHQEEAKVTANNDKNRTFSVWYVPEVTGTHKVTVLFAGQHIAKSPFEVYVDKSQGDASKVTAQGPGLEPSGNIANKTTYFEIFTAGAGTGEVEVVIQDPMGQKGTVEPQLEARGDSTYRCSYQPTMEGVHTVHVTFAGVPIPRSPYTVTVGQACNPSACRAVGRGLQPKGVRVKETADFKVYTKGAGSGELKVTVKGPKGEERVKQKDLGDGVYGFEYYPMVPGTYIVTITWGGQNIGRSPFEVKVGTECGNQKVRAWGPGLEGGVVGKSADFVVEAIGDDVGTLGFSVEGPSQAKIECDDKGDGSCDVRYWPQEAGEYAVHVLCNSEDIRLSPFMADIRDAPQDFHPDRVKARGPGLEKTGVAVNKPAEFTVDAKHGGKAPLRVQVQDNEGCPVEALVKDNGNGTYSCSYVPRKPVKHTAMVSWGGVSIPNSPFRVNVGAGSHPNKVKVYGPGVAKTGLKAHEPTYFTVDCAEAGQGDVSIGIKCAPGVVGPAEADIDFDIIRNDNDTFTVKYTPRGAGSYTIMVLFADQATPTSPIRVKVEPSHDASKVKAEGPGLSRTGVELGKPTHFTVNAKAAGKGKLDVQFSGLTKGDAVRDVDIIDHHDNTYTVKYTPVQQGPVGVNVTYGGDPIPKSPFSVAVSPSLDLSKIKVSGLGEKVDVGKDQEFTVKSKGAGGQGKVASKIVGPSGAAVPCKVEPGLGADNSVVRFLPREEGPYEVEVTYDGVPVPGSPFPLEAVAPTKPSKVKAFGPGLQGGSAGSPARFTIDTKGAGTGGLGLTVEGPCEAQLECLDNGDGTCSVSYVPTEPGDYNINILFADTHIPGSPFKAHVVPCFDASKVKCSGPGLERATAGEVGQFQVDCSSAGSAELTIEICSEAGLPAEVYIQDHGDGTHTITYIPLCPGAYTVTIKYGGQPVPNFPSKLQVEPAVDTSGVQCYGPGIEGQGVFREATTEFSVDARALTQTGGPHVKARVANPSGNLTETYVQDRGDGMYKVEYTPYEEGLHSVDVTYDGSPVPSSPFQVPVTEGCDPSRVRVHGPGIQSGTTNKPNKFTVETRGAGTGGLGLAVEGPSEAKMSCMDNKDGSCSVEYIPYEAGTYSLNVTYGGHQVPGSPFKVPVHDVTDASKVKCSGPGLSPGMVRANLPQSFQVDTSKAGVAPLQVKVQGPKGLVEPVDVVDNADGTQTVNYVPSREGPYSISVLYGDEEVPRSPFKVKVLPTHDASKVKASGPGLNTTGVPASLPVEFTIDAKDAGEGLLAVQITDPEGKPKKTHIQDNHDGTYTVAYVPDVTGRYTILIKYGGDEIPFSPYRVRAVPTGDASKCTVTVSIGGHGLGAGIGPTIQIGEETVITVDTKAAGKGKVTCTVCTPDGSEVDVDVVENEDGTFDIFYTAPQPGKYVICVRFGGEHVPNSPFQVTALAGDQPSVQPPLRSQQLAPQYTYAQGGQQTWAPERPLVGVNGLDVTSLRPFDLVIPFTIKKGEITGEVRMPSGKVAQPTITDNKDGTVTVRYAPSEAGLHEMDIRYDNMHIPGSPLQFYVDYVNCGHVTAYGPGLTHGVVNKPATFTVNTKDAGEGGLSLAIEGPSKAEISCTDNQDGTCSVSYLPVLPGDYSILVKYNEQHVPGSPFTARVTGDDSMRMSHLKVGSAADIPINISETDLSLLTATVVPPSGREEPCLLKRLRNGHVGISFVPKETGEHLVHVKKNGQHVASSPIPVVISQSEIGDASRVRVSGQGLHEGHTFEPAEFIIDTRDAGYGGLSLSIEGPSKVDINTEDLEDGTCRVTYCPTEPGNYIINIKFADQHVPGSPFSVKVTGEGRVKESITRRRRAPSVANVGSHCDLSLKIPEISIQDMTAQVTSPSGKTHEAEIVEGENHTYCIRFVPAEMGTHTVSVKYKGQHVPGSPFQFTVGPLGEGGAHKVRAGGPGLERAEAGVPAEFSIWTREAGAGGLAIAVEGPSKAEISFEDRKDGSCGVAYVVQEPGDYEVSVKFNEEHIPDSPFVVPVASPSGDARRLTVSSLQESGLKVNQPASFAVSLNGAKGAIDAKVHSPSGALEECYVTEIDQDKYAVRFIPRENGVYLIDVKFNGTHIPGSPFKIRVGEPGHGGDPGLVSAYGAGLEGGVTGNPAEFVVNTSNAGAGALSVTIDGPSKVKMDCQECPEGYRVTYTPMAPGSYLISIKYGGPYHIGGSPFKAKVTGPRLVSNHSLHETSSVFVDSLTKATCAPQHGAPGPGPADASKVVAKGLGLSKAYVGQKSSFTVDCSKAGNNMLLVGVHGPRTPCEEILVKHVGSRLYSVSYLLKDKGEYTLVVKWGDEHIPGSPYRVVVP
aberrant FLNA in Alzheimer's disease, sequence (P21333 whole entry): as the sequence (P21333 whole entry, species assumed) above

As to `CN1CCC2(CC1)NCC(=O)N2Cc1ccccc1` [PTI-125], the dendritic dysmorphogenesis result in series [1] (setting [9]) is listed as “partially rescued”; in series [1] (setting [10]) it was “partially rescued”; in series [1] (setting [11]), “partially, but significantly, rescued”. The neuronal soma size entry in series [1] (setting [9]) and in series [1] (setting [10]) was “partially rescued” each time. In addition, the increased soma size entry in series [1] (setting [11]) is “partially, but significantly, rescued”. In addition, the “cell misplacement (neuronal placement)” value in series [1] (treatment starting at P8, 12 mg/kg, brain sections from recorded mice) is listed as “not affected; also recorded: did not rescue”. Also, in series [2], the body weight entry is given as “did not affect”. The “affinity for aberrant FLNA in Alzheimer's disease” value in series [3] was “femtomolar”. Moreover, the seizure frequency in series [4] (12 mg/kg i.p. twice daily P8-P65, recorded P61 to P66, vehicle 5.1) amounted to 1.4 seizures/day; in series [4] (treatment P29 to P54, recorded P50-P54, vehicle 2.7), 0.84 seizures/day. Besides, in series [4] (FIG. 6A, all treatments combined, vehicle 3/29), the “Number of mice without/with seizures per condition” value is given as 11/32. The “overall reduction in seizure frequency compared to vehicle-treated littermates” value in series [4] (all PTI-125 treatments combined (n=32 vs n=27)) turned out to be 66%. Further, in series [4] (all PTI-125 treatments combined, vehicle 11%), the seizure-free mice stood at 35%. Also, the “lowering of seizure frequency compared to vehicle-treated mice” value in series [4] (treatment P29 to P54, recorded P50-P54) is 69% and 67%. Also, in series [4] (treatment prior to seizure onset, 12 mg/kg P8-P65, vs vehicle), the “reduction of seizure frequency” value came to 73%. The “reduction in seizure frequency prior to vs after treatment in the same mice” value in series [4] (young adult mice (P61-P106), 33-day treatment) is recorded as 60%. The “change of seizure frequency over time” value in series [4] (young adult mice switched from vehicle to PTI-125 after 12 days of recordings, 20-day treatment) is “did not have the increase in seizure frequency observed in the vehicle group”. The compound also came in with a mean seizure frequency in series [4] (young adult mice, after 33-day treatment, 3.9 prior to treatment) of 1.6 seizures/day. The “affinity for native FLNA” value in series [5] is “picomolar”. In addition, the “phospho-S6 expression in the cortex” value in series [6] (nonelectroporated mice, 12 mg/kg) was “not affected”. Besides, the “phospho-S6 intensity in brain sections” value in series [6] (recorded Rheb^CA mice, 12 mg/kg P8-P65) was “not affected”.
Regarding `CO[C@H]1C[C@@H]2CC[C@@H](C)[C@@](O)(O2)C(=O)C(=O)N2CCCC[C@H]2C(=O)O[C@H]([C@H](C)C[C@@H]2CC[C@@H](OCCO)[C@H](OC)C2)CC(=O)[C@H](C)/C=C(\C)[C@@H](O)[C@@H](OC)C(=O)[C@H](C)C[C@H](C)/C=C/C=C/C=C/1C` [everolimus], in series [7] (highest dose), the “patients with reduced seizure frequency” value is 40%. Moreover, in series [7], the “patients who saw no improvements” value was 60% and the side-effects entry is recorded as “had side-effects”.
For the compound “Flna shRNA: short hairpin RNA against Flna, expressed from plasmid; sequence 5′ CCTATGAAGCTGGAACCTATA 3′ (expressed from plasmid pCGLH)”, the “Rheb^CA-induced increased S6 phosphorylation” value in series [8] is “did not reduce”. The total dendritic length in series [1] (Rheb^CA neurons co-expressing shRNA by E15 IUE, P28, 194% with control shRNA) was 130 % of control. In addition, the soma size in series [1] (Rheb^CA neurons co-expressing shRNA by E15 IUE, P28, 372% with control shRNA) is listed as 250 % of control. For the same compound, in series [1] (Rheb^CA neurons co-expressing shRNA by E15 IUE, analysed at P28, 50% with control shRNA, 2% in control), the “misplaced cells (neuronal misplacement)” value amounted to 23%. Moreover, in series [4] (out of 10 mice, 4 out of 16 died in the control group), the death of mice entry was “no mice died”. In series [4] (video-EEG for 5 days starting at P61), the “lowering of seizure frequency compared to luciferase shRNA” value worked out at 83%. Also, in series [4] (video-EEG for 5 days starting at P61, 12.6 with luciferase shRNA), the mean seizure frequency was found to be 2.2 seizures/day. Further, the “increased phospho-S6 intensity in vivo” value in series [6] (GFP+ Rheb^CA-expressing neurons in EEG-recorded mice) is “did not prevent”.

The values above are taken from patent US12186307B2, “Methods of treating epilepsy” (YALE UNIVERSITY, priority 2019, dated 2025).
